Values joined by “and” are separate entries in the source; they are usually repeats but may differ in a detail not shown here. Equal entries are not always repeated.
How the values were obtained:
mice = assay: Single-dose oral toxicity; format: in vivo, mouse
Procedure: (§1) Single doses up to 300-400 mg/kg and 800 mg/kg appeared to be generally well tolerated in monkeys and rats, respectively (one monkey treated with 400 mg/kg died in the 2-week GLP study on Day 1 of dosing). […] In mice, mortality was consistently seen following single doses 150 mg/kg. Preliminary 5-day repeat-dose range-finding studies were conducted in mice, rats and monkeys. The definitive 14-day studies in mouse and monkey yielded generally similar results to those observed in the 5-day studies.

rats = assay: Single-dose oral toxicity; format: in vivo, rat
Procedure: as §1

plasma protein = assay: Plasma protein binding; format: in vitro ADME, Human
Source text: There is no information on the protein binding of any of the metabolites.

CYP2C8 = CYP2C8 (Homo sapiens, UniProt P10632); settings: recombinant enzyme
CYP2C8, sequence (P10632 whole entry): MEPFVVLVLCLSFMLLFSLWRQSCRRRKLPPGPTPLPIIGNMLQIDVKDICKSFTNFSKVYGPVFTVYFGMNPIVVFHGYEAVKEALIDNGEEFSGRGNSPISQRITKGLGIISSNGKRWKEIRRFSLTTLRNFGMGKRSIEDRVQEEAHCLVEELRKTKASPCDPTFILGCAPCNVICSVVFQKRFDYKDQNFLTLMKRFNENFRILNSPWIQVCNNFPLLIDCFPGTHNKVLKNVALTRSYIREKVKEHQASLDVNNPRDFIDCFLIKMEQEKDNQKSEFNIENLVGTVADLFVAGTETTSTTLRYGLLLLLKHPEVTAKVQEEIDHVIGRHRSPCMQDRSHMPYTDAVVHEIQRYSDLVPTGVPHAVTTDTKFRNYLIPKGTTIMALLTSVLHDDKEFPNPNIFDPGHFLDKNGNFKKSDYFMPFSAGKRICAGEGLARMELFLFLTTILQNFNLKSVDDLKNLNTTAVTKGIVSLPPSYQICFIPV
Procedure: (§3) Control incubations were performed for each assay with appropriate positive inhibitory controls.

[1] = Pre-clinical pharmacokinetics, all species tested; format: in vivo
Procedure: In all the species tested in pre-clinical studies, 18-MC is rapidly absorbed following oral administration with Tmax occurring in less than 0.5 hours following oral administration. After oral administration, the elimination of 18-MC is multi-compartmental. In plasma, 18-MC is highly protein bound (92% to 98%). 18-MC is also rapidly and extensively metabolized, presumably by first pass metabolism. At least […] different metabolites have been detected both in vitro and in vivo, further described below (M1-M9, P1-P3). The major metabolites (those with exposure greater than 10% of the total drug related material) appear to change with the dose and duration of dosing. Major metabolites include M2, M4, M5, M8, M9 and P2 depending on the animal species tested, and the dose and duration of dosing.
18-MC is rapidly absorbed and distributed into the brain and fat tissues in rats dosed with 40 mg/kg p.o. or i.p. The estimated volume of distribution is 8 L/kg. 18-MC levels in fat were 4.2 μM and 2.5 μM at 2 hours and 24 hours, respectively. […] On oral administration, it appears that the major metabolites are either M4 or M5, depending on the animal species tested. M4 and M5 are the primary circulating drug species because they are present at proportions greater than 18-MC. […] In the animal species tested its half-life is less than 2 hours at lower doses. […]

Mu opioid receptor = Mu opioid receptor (Homo sapiens, UniProt P35372); assay: In vitro radio-ligand assay; format: binding; settings: 10 μM
Mu opioid receptor, sequence (P35372 whole entry, species assumed): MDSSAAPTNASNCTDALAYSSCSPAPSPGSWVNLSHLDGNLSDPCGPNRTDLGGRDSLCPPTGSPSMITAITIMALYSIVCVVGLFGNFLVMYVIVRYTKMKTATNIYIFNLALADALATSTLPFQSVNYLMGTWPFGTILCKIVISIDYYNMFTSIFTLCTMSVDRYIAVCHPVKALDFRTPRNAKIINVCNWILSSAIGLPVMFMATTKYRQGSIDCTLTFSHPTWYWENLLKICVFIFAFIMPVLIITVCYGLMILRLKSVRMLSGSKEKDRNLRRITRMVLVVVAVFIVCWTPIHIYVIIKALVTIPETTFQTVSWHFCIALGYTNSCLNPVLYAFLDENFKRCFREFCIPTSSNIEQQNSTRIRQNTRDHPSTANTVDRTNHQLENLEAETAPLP
Procedure: (§2) The binding potential of 18-MC with 64 neurotransmitter-related binding sites was evaluated (TABLE 2).

[2] = system: adrenergic alpha-1 receptor; assay: In vitro radio-ligand assay; format: binding; settings: 10 μM
Procedure: as §2

sodium site 2 channel = assay: In vitro radio-ligand assay; format: binding; settings: 10 μM
Procedure: as §2

[3] = Phase 1 first-in-human study, pharmacokinetics in plasma
Procedure: Fourteen normal, healthy volunteers were enrolled in the study. Seven volunteers were treated in the first cohort (3 placebo, 4 received a single dose of 20 mg of 18-MC) and seven in the second cohort (2 placebo, 5 received 8 mg as 4 mg doses of 18-MC administered at 0 and plus 10 hours). For Cohort A, volunteers were monitored in a hospital unit for 2 days (36 hours) days, and were followed up for safety at Days 3, 7 and 30. For Cohort B, volunteers were monitored in a hospital unit for 2 days (36 hours), and were followed up for safety at Days 3, 4, 7 and 30.
This study was designed as a randomized, double-blind, placebo-controlled, single-center Phase 1 first-in-human clinical trial. After screening, volunteers were admitted to the hospital for 36 hours. […] Study article was initiated on Day 1 and volunteers were discharged on Day 2. Cohort A were seen as outpatients on Days 3, 7 and 30. Cohort B were seen as outpatients on Days 3, 4, 7 and 30. 14 subjects were in the study, 5 male and 9 female.
For Cohort A, pharmacokinetic samples were obtained at baseline and at 0.5, 1.0, 2.0, 6.0, 12.0, 24, 36 hours, and 7 days post dose.
Samples underwent two analyses: A research assay (LG/MS/TOF) developed by MicroConstants, Inc., was used to collect the raw data. The first analysis was to quantitate 18-MG and the known metabolites M2, M4 and M5 (using standard curves included in the run). The second analysis compared the peak heights of 18-MG and all the metabolites that could be identified in terms of relative peak height (M1 through M10, and P1-P3).

[4] = system: 64 neurotransmitter-related binding sites; assay: In vitro radio-ligand receptor and enzyme assays (panel); settings: 100 nM
Procedure: as §2

[5] = Plasma 18-MC concentration in rats, 5-day dosing self-administration study
Procedure: Blood samples were collected from animals immediately after their cocaine self-administration at approximately 2 hours post dose in the first day of dosing (Day 0), and the last day of dosing (Day 4).

CYP2E1 = CYP2E1 (Homo sapiens, UniProt P05181); settings: recombinant enzyme
CYP2E1, sequence (P05181 whole entry): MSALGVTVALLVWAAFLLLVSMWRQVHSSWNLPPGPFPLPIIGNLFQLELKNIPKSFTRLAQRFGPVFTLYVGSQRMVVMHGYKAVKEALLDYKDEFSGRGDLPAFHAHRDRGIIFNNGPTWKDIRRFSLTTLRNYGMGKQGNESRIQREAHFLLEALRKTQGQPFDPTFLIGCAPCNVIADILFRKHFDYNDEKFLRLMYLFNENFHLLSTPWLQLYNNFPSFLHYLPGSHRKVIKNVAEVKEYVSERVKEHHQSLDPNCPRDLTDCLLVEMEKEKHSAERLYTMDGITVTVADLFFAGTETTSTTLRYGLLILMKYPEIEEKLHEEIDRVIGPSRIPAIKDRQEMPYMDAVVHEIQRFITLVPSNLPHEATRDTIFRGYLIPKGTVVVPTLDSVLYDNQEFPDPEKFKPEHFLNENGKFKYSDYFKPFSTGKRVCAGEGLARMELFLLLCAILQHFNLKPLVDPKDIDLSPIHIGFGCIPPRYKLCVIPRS
Procedure: as §3

healthy volunteers = assay: Phase 1 first-in-human study, safety and tolerability; format: in vivo; design: key to AE Urinary tract infection (subject A1): Study Drug related / AE Retro-orbital headache (subject A2): Study Drug related / AE Hot coffee burn in hand and right forearm (subject A3): Study Drug related / AE Dry cough (subject A4): Study Drug related / AE Body pain (subject A5): Study Drug related / AE Occipital and frontal headache (subject A6): Study Drug related / AE Nausea (subject A1): Study Drug related / AE Arterial Hypotension (subject A1): Study Drug related / AE Pain - submandibular lymph node (subject A1): Study Drug related: 1 Not related; 2 Possible; 3 Probable
Procedure: None discontinued the study.
Safety was monitored by reported adverse events, hematology, serum chemistries (including electrolytes, renal and liver function, urinalysis, ECG and vital signs. In addition, a neurological examination (mini-mental status exam) including assessment for abnormal eye movement, nystagmus, tremors, reflexes, upper and lower extremity strength, distal sensor perception, intention tremor, the Romberg test, excessive somnolence and mental status were performed.

CYP2D6 = CYP2D6 (Homo sapiens, UniProt P10635); settings: recombinant enzyme
CYP2D6, sequence (P10635 whole entry): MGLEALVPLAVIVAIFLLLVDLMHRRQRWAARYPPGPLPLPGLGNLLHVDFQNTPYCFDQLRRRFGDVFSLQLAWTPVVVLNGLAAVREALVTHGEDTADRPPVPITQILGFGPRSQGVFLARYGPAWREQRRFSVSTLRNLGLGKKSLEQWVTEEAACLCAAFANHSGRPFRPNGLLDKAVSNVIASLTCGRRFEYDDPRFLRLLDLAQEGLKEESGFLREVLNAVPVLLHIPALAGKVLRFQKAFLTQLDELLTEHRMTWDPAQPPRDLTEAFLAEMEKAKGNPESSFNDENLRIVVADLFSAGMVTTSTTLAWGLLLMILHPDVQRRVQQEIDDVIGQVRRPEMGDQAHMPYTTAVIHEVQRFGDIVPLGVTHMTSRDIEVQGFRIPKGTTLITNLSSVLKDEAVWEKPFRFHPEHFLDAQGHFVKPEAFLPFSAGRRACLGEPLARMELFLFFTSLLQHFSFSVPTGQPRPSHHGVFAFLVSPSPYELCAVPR
Procedure: as §3

[6] = cohort B, 4 mg PO at 0 and +10 hours
[7] = Dose Day 0, post dose (~2 h), 600 mg/kg/day

## COCCC1CC2CN3CCc4c([nH]c5ccccc45)C(C(=O)OC)(C2)C13.Cl (stereo not drawn) [18-MC HCl, 18-Methoxycoronaridine hydrochloride]
mice
  single doses with mortality consistently seen: 150 mg/kg
rats
  single dose generally well tolerated: ≤ 800 mg/kg

## COCC[C@H]1CC2CN3CCc4c([nH]c5ccccc45)[C@](C(=O)OC)(C2)[C@H]13 [18-MC, 18-methoxycoronaridine]
Plasma protein; 200 ng/mL
  % Bound Mean ± SD: 96.8 ± 0.321%
Plasma protein; 600 ng/mL
  % Bound Mean ± SD: 97.6 ± 0.153%
Plasma protein; 5,000 ng/mL
  % Bound Mean ± SD: 95.2 ± 0.473%
Plasma protein; average of 3 concentrations
  Average % Bound Mean ± SD: 96.5 ± 1.22%
CYP2C8
  IC50: 19 µM
[1]; animal species tested, lower doses, oral
  half-life: less than 2 hours
[1]; oral administration, all the species tested
  Tmax: less than 0.5 hours
Mu opioid receptor
  binding: binding was seen
[2]
  binding: binding was seen
Sodium site 2 channel
  binding: binding was seen
[3]; 4 mg at 0 and +10 hours (8 mg total), longer sampling interval
  elimination half-life: about 48 hours
[3]; cohort A or B, generally
  Tmax: ½
[3]; cohort A, 20 mg PO single dose
  AUCall, Average: 339 ng·h/mL
  AUCall, Max: 447 ng·h/mL
  AUCall, Min: 241 ng·h/mL
  Cmax, Average: 119 ng/mL
  Cmax, Max: 182 ng/mL
  Cmax, Min: 92 ng/mL
  Half-Life, Average: 17.9 h
  Half-Life, Max: 21.7 h
  Half-Life, Min: 14.2 h
  Tmax, Average: 0.5 h
  Tmax, Max: 0.5 h
  Tmax, Min: 30 min
[3]; [6]
  AUCall, Average: 195 ng·h/mL
  AUCall, Max: 400 ng·h/mL
  AUCall, Min: 124 ng·h/mL
  Cmax, Max: 46 ng/mL
  Cmax, Min: 20 ng/mL
  Half-Life, Average: 16.9 h
  Half-Life, Max: 52.2 h
  Half-Life, Min: 3.0 h
  Tmax, Average: 2.55 h
  Tmax, Max: 10.25 h
  Tmax, Min: 30 min
[4]
  binding activity: no binding activity
[5]; [7]
  Plasma 18-MC concentration, Average: 11,442 ng/mL
  Plasma 18-MC concentration, individual animals: 3,450 ng/mL and 12,600 ng/mL and 11,300 ng/mL and 13,900 ng/mL and 14,200 ng/mL and 13,200 ng/mL
[5]; Dose Day 4, post dose
  Plasma 18-MC concentration, Average: 7,524 ng/mL
  Plasma 18-MC concentration, individual animals: 9,030 ng/mL and 3,760 ng/mL and 8,040 ng/mL and 10,500 ng/mL and 6,290 ng/mL
[5]; Dose Day 4, pre dose
  Plasma 18-MC concentration, Average: 2,998 ng/mL
  Plasma 18-MC concentration, individual animals: 3,840 ng/mL and 1,680 ng/mL and 3,020 ng/mL and 2,720 ng/mL and 3,730 ng/mL
CYP2E1
  IC50: 28 µM
Healthy volunteers; 20 mg single dose, 4 mg twice
  serious adverse events: No serious adverse events occurred
Healthy volunteers; FIH study
  dose at which safe in healthy volunteers: up to 20 mg
Healthy volunteers; day noted 1
  AE Arterial Hypotension (subject A1): Severity: 1
  AE Arterial Hypotension (subject A1): Study Drug related: 2
  AE Nausea (subject A1): Severity: 1
  AE Nausea (subject A1): Study Drug related: 2
  AE Pain - submandibular lymph node (subject A1): Severity: 1
  AE Pain - submandibular lymph node (subject A1): Study Drug related: 2
  AE Retro-orbital headache (subject A2): Severity: 1
  AE Retro-orbital headache (subject A2): Study Drug related: 2
Healthy volunteers; day noted 2-30
  AE Urinary tract infection (subject A1): Severity: 2
  AE Urinary tract infection (subject A1): Study Drug related: 1
Healthy volunteers; day noted 4
  AE Occipital and frontal headache (subject A6): Severity: 2
  AE Occipital and frontal headache (subject A6): Study Drug related: 1
Healthy volunteers; day noted 4 (CRF entry error)
  AE Dry cough (subject A4): Severity: 1
  AE Dry cough (subject A4): Study Drug related: 3
Healthy volunteers; day noted 7
  AE Hot coffee burn in hand and right forearm (subject A3): Severity: 1
  AE Hot coffee burn in hand and right forearm (subject A3): Study Drug related: 1
Healthy volunteers; day noted 30
  AE Body pain (subject A5): Severity: 1
  AE Body pain (subject A5): Study Drug related: 1
CYP2D6
  IC50: > 100 µM
